Patent publication USRE37078E, “Thiophene compounds” (Adir et Compagnie, priority 1995, dated 2001)

Tests used:
mouse = assay: acute inflammatory pain test in the mouse (Siegmund test, writhing); format: in vivo; details: oral administration, read-out: dose causing 50% inhibition of the reactions of the animal
Text: Exp. Ther. 119, 1957, 184).

[1] = tested on: cyclooxygenase pathway (PGE2); assay: biosynthesis of mediators of the cyclooxygenase pathway in vitro on rat polymorphonucleocytes stimulated by ionophore A23187; format: cell-based
Text: (§1) Tordjman et al. ("High-performance liquid chromatographic quantitation of cyclooxygenase and lipoxygenase metabolites of arachidonic acid from rat polymorphonuclear leucocytes" Journal of Chromatography, 532, 1990, 135-143).

rat = assay: polyarthritis auto-immune model in the rat using Freund's adjuvant; format: in vivo; details: oral, 5 mg/kg/day, 14th day of the pathology
Procedure: 3) The activity on chronic inflammation was evaluated in a polyarthritis auto-immune model in the rat using Freund's adjuvant in accordance with the protocol described by J. Bonnet et al. ("Bone morphometric changes in adjuvant-induced polyarthritic osteopenia in rats; evidence for an early bone formation defect" J. Bone Miner. Res. 8, 1993, 659-668). By way of example, the compound of Example 1, at an oral dose of 5 mg/kg/day, inhibits by 30% the diffusion of arthritis on the 14th day of the pathology.

[2] = tested on: lipoxygenase pathway (LTB4); assay: biosynthesis of mediators of the lipoxygenase pathway in vitro on rat polymorphonucleocytes stimulated by ionophore A23187; format: cell-based
Text: as §1

Row | Compound | IC50 [1] | IC50 [2] | ED50 (mouse) | inhibition of the diffusion of arthritis (rat)
1 | COc1ccc(-c2cc(CCC(C)(C)CC(=O)NO)sc2-c2ccc(OC)cc2)cc1 [Example 3] | 2500 nM | 1000 nM |  | 
2 | COc1ccc(-c2cc(CCC(C)(C)CC(=O)N(C)O)sc2-c2ccc(OC)cc2)cc1 [Example 4] | 750 nM | 380 nM |  | 
3 | COc1ccc(-c2cc(CCCC(=O)N(C)O)sc2-c2ccc(OC)cc2)cc1 [Example 6] | 380 nM | 50 nM | 2.5 mg/kg | 
4 | COc1ccc(-c2sc(CCCC(=O)N(C)O)cc2-c2ccc(C)cc2)cc1 [Example 16] | 50 nM | 50 nM |  | 
5 | CCN(O)C(=O)CCc1cc(-c2ccc(OC)cc2)c(-c2ccc(OC)cc2)s1 [Example 22] | 80 nM | 50 nM |  | 

More lines, main results first:

Row | IC50 [1] | IC50 [2] | Compound | ED50 (mouse) | inhibition of the diffusion of arthritis (rat)
6 | 50 nM | 30 nM | COc1ccc(-c2cc(CCC(=O)N(C)O)sc2-c2ccc(OC)cc2)cc1 [Example 1, 3-[4,5-bis(4-methoxyphenyl)thien-2-yl]-N-hydroxy-N-methylpropionamide] | 1 mg/kg | 30%
7 | 380 nM | 80 nM | COc1ccc(-c2sc(CCC(=O)N(C)O)cc2-c2ccc(F)cc2)cc1 [Example 2] | 5 mg/kg | 
8 | 2500 nM | 250 nM | COc1ccc(-c2sc(CCC(C)(C)CC(=O)N(C)O)cc2-c2ccc(F)cc2)cc1 [Example 5] |  | 
